Measured values taken from US12098216B2, “Modulators of programmed death-ligand-1 and/or programmed death-ligand-2” (Southern Research Institute, priority 2020, dated 2024).
Square brackets hold non-standard residues; d marks the D form. Peptide text beside a SMILES is read from it. * marks the point of attachment. dPhe(4-CH2NH2) = NCc1ccc(C[C@@H](N)C(=O)O)cc1; dOrn = NCCC[C@@H](N)C(=O)O; Orn = NCCC[C@H](N)C(=O)O; Ac5c = NC1(C(=O)O)CCCC1; PhAc = O=C(Cc1ccccc1)*; Ac3c = NC1(C(=O)O)CC1; Aib = CC(C)(N)C(=O)O

test system: PDL-1 and/or PDL-2 signaling; assay: Luciferase assay of dipeptides, Table 1; assay type: cell-based

Row | EC50 [µM] | EC50 (μM) Luciferase | SMILES
1 | 0.714 | – | CC(C)(NC(=O)[C@@H](Cc1ccc(CN)cc1)NC(=O)Cc1ccc(F)cc1)C(N)=O [Compound 24]
2 | 10.3 | – | CCCC[C@@H](NC(=O)Cc1ccc(F)cc1)C(=O)NC(C)(C)C(N)=O [Compound 39]
3 | 18 | – | CC(C)(NC(=O)[C@@H](CCCN)NC(=O)Cc1ccccc1)C(N)=O [Compound 1, (R)-5-amino-N-(1-amino-2-methyl-1-oxopropan-2-yl)-2-(2-phenylacetamido)pentanamide] (PhAc-[dOrn]-[Aib]-NH2)
4 | 0.09 | – | CC(C)(NC(=O)[C@@H](CCCN)NC(=O)Cc1ccc(OC(F)(F)F)cc1)C(N)=O [Compound 6]
5 | 0.01 | – | CC(C)(NC(=O)[C@@H](CCCN)NC(=O)Cc1ccc(C(F)(F)F)cc1)C(N)=O [Compound 3]
6 | 2 | – | CC(C)(NC(=O)[C@@H](CCCN)NC(=O)Cc1ccc(F)c(F)c1)C(N)=O [Compound 28]
7 | 5.03 | – | CC(C)(NC(=O)[C@@H](CCCN)NC(=O)C1(c2ccc(F)cc2)CC1)C(N)=O [Compound 25]
8 | 1.28 | – | CC(C)(NC(=O)[C@@H](CCCN)NC(=O)Cc1cccc(F)c1)C(N)=O [Compound 11]
9 | 17.7 | – | CC(C)(NC(=O)[C@@H](Cc1ccc(CN)cc1)NC(=O)Cc1ccccc1)C(N)=O [Compound 23] (PhAc-[dPhe(4-CH2NH2)]-[Aib]-NH2)
10 | 0.47 | – | CC(C)(NC(=O)[C@@H](CCCN)NC(=O)Cc1ccc(F)cc1)C(N)=O [Compound 4]
11 | 7.9 | – | CC(C)(NC(=O)[C@H](CCCN)NC(=O)Cc1ccccc1)C(N)=O [Compound 2] (PhAc-[Orn]-[Aib]-NH2)
12 | – | Inactive | Cc1ccc(CC(=O)N[C@H](CCCN)C(=O)NC(C)(C)C(N)=O)cc1 [Compound 10]
13 | 23.8 | – | CN(C)CCC[C@@H](NC(=O)Cc1ccc(F)cc1)C(=O)NC(C)(C)C(N)=O [Compound 37]
14 | 0.32 | – | COc1ccc(CC(=O)N[C@H](CCCN)C(=O)NC(C)(C)C(N)=O)cc1 [Compound 5]
15 | 12.1 | – | CC(C)(NC(=O)[C@H](CCCN)NC(=O)Cc1ccc(C(F)(F)F)cc1)C(N)=O [Compound 42]
16 | 10.3 | – | CC(C)(NC(=O)[C@@H](CCCN)NC(=O)Cc1ccc(Cl)cc1)C(N)=O [Compound 17]

The next lines start with the compound.

Row | SMILES | EC50 [µM] | EC50 (μM) Luciferase
17 | CC(C)(NC(=O)[C@@H](CCCN)NC(=O)Cc1ccncc1)C(N)=O [Compound 34] | 3.48 | –
18 | CC(C)(NC(=O)[C@@H](CCCN)NC(=O)Cc1nc2ccccc2o1)C(N)=O [Compound 38] | 19.2 | –
19 | Cc1c[nH]c(=O)c(NC(=O)[C@@H](CCCN)NC(=O)Cc2ccccc2)c1 [Compound 36] | 1.69 | –
20 | CC(C)(NC(=O)[C@@H](CCCN)NC(=O)Cc1ccccc1F)C(N)=O [Compound 9] | 0.05 | –
21 | NCCC[C@@H](NC(=O)Cc1ccc(F)cc1)C(=O)NC1(C(N)=O)CC1 [Compound 15] | 3.32 | –
22 | CC(C)(NC(=O)[C@@H](CCCN)NC(=O)Cc1c(F)cc(F)cc1F)C(N)=O [Compound 33] | 0.06 | –
23 | Cn1cc(C(=O)N[C@H](CCCN)C(=O)NC(C)(C)C(N)=O)c2ccccc21 [Compound 13] | 1.28 | –
24 | CC(C)(NC(=O)[C@@H](CCCN)NC(=O)Cc1cc(F)cc(F)c1)C(N)=O [Compound 30] | 2.1 | –
25 | NCCC[C@@H](NC(=O)Cc1ccccc1)C(=O)NC1(C(N)=O)CC1 [Compound 14] (PhAc-[dOrn]-[Ac3c]-NH2) | 0.11 | –
26 | Cc1c[nH]c(=O)c(NC(=O)[C@@H](CCCN)NC(=O)Cc2ccc(F)cc2)c1 [Compound 35] | 0.59 | –
27 | CC(C)(NC(=O)[C@@H](CCCN)NC(=O)Cc1c(F)cccc1F)C(N)=O [Compound 31] | 0.596 | –
28 | CC(C)(NC(=O)[C@@H](CCCN)NC(=O)Cc1cc(F)c(F)c(F)c1)C(N)=O [Compound 32] | 28.3 | –
29 | CC(C)(NC(=O)[C@@H](CCCN)NC(=O)Cc1nc2ccccc2s1)C(N)=O [Compound 40] | 0.07 | –
30 | CC(C)(NC(=O)[C@@H](CCCN)NC(=O)Cc1ccc(F)cc1Cl)C(N)=O [Compound 27] | 10.2 | –
31 | CC(C)(NC(=O)[C@@H](CCCN)NC(=O)C1(c2ccccc2)CC1)C(N)=O [Compound 22] | 2.05 | –
32 | CC(C)(NC(=O)[C@@H](CCCCN)NC(=O)Cc1ccccc1)C(N)=O [Compound 8] (PhAc-[dK]-[Aib]-NH2) | 1.37 | –
33 | NCCC[C@@H](NC(=O)Cc1ccccc1)C(=O)NC1(C(N)=O)CCCC1 [Compound 7] (PhAc-[dOrn]-[Ac5c]-NH2) | 0.28 | –
34 | CC(C)(NC(=O)[C@@H](CCCN)NC(=O)C(C)(C)c1ccccc1)C(N)=O [Compound 12] | – | Inactive
35 | CC(C)(NC(=O)[C@@H](CCCN)NC(=O)Cc1ccc(F)cc1F)C(N)=O [Compound 29] | 2.58 | –
36 | CC(C)(NC(=O)[C@@H](CCCN)NC(=O)C(C)(C)c1ccc(F)cc1)C(N)=O [Compound 26] | 3.79 | –

target: PD-1; assay: Binding affinity (KD) of dipeptides, Table 1

Row | KD | SMILES
37 | No Binding | CC(C)(NC(=O)[C@@H](Cc1ccc(CN)cc1)NC(=O)Cc1ccccc1)C(N)=O [Compound 23] (PhAc-[dPhe(4-CH2NH2)]-[Aib]-NH2)
38 | No Binding | CC(C)(NC(=O)[C@@H](CCCN)NC(=O)Cc1ccc(Cl)cc1)C(N)=O [Compound 17]

More lines, now with the values behind:

Row | SMILES | KD
39 | Cc1c[nH]c(=O)c(NC(=O)[C@@H](CCCN)NC(=O)Cc2ccccc2)c1 [Compound 36] | No Binding
40 | CC(C)(NC(=O)[C@@H](CCCN)NC(=O)Cc1cc(F)c(F)c(F)c1)C(N)=O [Compound 32] | No Binding
